Source: publication PMC5445237 (CPT: Pharmacometrics & Systems Pharmacology, 2017)
Where two headings read alike, the source gives them in different places.

Key:
[1] = Exploratory exposure-response evaluation for bleeding and efficacy endpoints; format: in vivo, human
[2] = cited from earlier work
[3] = Population pharmacokinetic analysis of apixaban; format: in vivo, human; conditions: for CL renal: male, human, plasma, oral
[4] = tested on: cytochrome P450 3A4 (CYP3A4); conditions: minor contributions from CYP1A2, 2C8, 2C9, 2C19, 2J2; cited from earlier work
[5] = cited from earlier work; for increase in apixaban exposure: phase I study, regression analysis
[6] = Simulation of apixaban steady-state exposure in VTE treatment population; parameters: species or system human
[7] = among 522 subjects from the acute VTE treatment studies

## COc1ccc(-n2nc(C(N)=O)c3c2C(=O)N(c2ccc(N4CCCCC4=O)cc2)CC3)cc1 [apixaban, Apixaban]
[1]; among 178 subjects from the AMPLIFY-EXT study
  bleeding events (major or clinically relevant nonmajor): eight
[1]; [7]
  VTE/VTE-related death events: five
  bleeding events (major or clinically relevant nonmajor): 25
[2]; AMPLIFY study
  adjudicated major bleeding (primary safety endpoint) vs enoxaparin/warfarin: statistically superior
[2]; AMPLIFY-EXT
  number of major bleeding events, apixaban and placebo groups: low and similar
[3]; 50-kg subject
  reduction in Vc/F vs 85 kg reference subject: 24%
[3]; 120-kg subject
  increase in Vc/F vs 85 kg reference subject: 20%
[3]; age, sex, Asian race (also strong or moderate CYP3A4/P-gp inhibitors)
  impact on apixaban exposure: less than 25%
[3]; expected from 27% renal contribution, renal clearance close to zero
  increase in AUC expected in severe renal impairment: ~40%
[3]; final model
  Asian subjects effect on CL/F (covariate parameter, fractional change): −0.168
  Female effect on CLNR/F (covariate parameter, fractional change): −0.223
  IIV (interindividual variability, CV%) of CL/F: 33.1%
  IIV (interindividual variability, CV%) of ka: 50.2%
  Q/F (apparent intercompartmental clearance): 1.62 L/h
  Vp/F (apparent volume of peripheral compartment): 19.8 L
[3]; final model, reference VTE treatment subject
  Vc/F (apparent volume of central compartment): 32.1 L
[3]; final population PK model, evening dose
  ka, an evening dose: 0.239 h⁻¹
[3]; final population PK model, morning or afternoon dose
  ka: 0.440 h⁻¹
[3]; CLNR/F (apparent nonrenal clearance), final model, reference VTE treatment subject
  CL renal: 42 mL/min
[3]; CLR/F (apparent renal clearance), final model, reference VTE treatment subject (60 years, non-Asian male, 85 kg, cCrCL 100 mL/min)
  CL renal: 30.5 mL/min
[3]; predicted, 40-year-old male, no change in apparent renal clearance
  lower daily AUC vs 60-year-old reference subject: ~6%
[3]; predicted, 80-year-old male, no change in apparent renal clearance
  higher daily AUC vs 60-year-old reference subject: 5%
[3]; predicted, Asian subjects
  higher AUC compared to non-Asian subjects: 20%
[3]; predicted, female subjects
  higher AUC than male subjects: ~15%
[3]; predicted, mild renal impairment (cCrCL of 65 mL/min)
  higher AUC than reference subject with normal renal function: ~17%
[3]; predicted, severe renal impairment (cCrCL of 15 mL/min)
  higher AUC (exposure) than reference subject: 56%
[3]; severe renal impairment
  decrease in CL/F: 36%
[4]
  metabolism by CYP3A4: predominantly metabolized
[5]
  half-life: ~12 h
  lower CL/F, NVAF subjects compared to phase I subjects: 14%
  oral bioavailability: ~50%
  renal clearance as share of total systemic clearance: ~27%
  volume of distribution from phase I studies: ~21 L
[5]; healthy subjects, strong inducer of CYP3A4 and P-gp
  decrease in exposure after coadministration with rifampin: 50%
[5]; healthy subjects, strong inhibitor of CYP3A4 and P-gp
  increase in exposure after coadministration with ketoconazole: 2 fold
[5]; nonvalvular atrial fibrillation subjects, 5 mg b.i.d.
  predicted median daily AUCss in NVAF subjects: 3,280 ng*hr/mL
[5]; phase I clinical studies
  exposure higher following coadministration with ketoconazole than apixaban alone: ~100%
[5]; phase I studies
  higher AUC, females compared to males: 15%
  higher AUC, older subjects (>=65 years) compared to younger subjects (18-40 years): 32%
[5]; mild renal impairment
  increase in apixaban exposure: ~16%
[5]; moderate renal impairment
  increase in apixaban exposure: ~29%
[5]; severe renal impairment
  increase in apixaban exposure: ~44%
[6]; 5-mg b.i.d., VTE treatment population vs NVAF subjects
  predicted median daily AUCss lower than in NVAF subjects: about 25%
[6]; predicted, VTE treatment subjects
  fluctuation between peak and trough concentrations: ~2 fold
